Measurements taken from paper PMC5218480 (PLoS ONE, 2017).

System: MV-4-11 cells
Assay: Gene expression microarray analysis (Affymetrix PrimeView) and GSEA
Format: cell-based, human
Set-up: RFU PODN (11730768_x_at) / Fold change /veh PODN (11730768_x_at) / RFU LINC00158 (11744669_a_at) / Fold change /veh LINC00158 (11744669_a_at) / RFU DUSP10 (11751237_a_at) / Fold change /veh DUSP10 (11751237_a_at) / RFU ID3 (11757404_x_at) / Fold change /veh ID3 (11757404_x_at) / RFU PLEKHG5 (11737974_s_at) / Fold change /veh PLEKHG5 (11737974_s_at) / RFU LRRC4B (11730491_at) / Fold change /veh LRRC4B (11730491_at) / RFU GIMAP4 (11747438_a_at) / Fold change /veh GIMAP4 (11747438_a_at) / RFU KRT8 (11758183_x_at) / Fold change /veh KRT8 (11758183_x_at) / RFU CNN1 (11734310_a_at) / Fold change /veh CNN1 (11734310_a_at) / RFU VPS37D (11726825_at) / Fold change /veh VPS37D (11726825_at) / RFU C10orf10 (11716522_x_at) / Fold change /veh C10orf10 (11716522_x_at) / RFU KIR2DL2 /// KIR2DL4 /// KIR2DL5A /// KIR2DL5B /// KIR2DS1 /// KIR2DS2 /// KIR2DS3 /// KIR2DS4 /// KIR3DL3 /// KIR3DL3 /// KIR3DS1 (11738374_at) / Fold change /veh KIR2DL2 /// KIR2DL4 /// KIR2DL5A /// KIR2DL5B /// KIR2DS1 /// KIR2DS2 /// KIR2DS3 /// KIR2DS4 /// KIR3DL3 /// KIR3DL3 /// KIR3DS1 (11738374_at) / RFU C1QL1 (11718748_at) / Fold change /veh C1QL1 (11718748_at) / RFU TMPRSS4 (11747572_a_at) / Fold change /veh TMPRSS4 (11747572_a_at) / RFU HAMP (11756126_x_at) / Fold change /veh HAMP (11756126_x_at) / RFU RNFT2 (11725882_a_at) / Fold change /veh RNFT2 (11725882_a_at) / RFU NR4A2 (11747474_a_at) / Fold change /veh NR4A2 (11747474_a_at) / RFU ABCC12 (11746883_a_at) / Fold change /veh ABCC12 (11746883_a_at) / RFU TMEM136 (11760407_x_at) / Fold change /veh TMEM136 (11760407_x_at) / RFU CLDN22 /// WWC2 (11732394_at) / Fold change /veh CLDN22 /// WWC2 (11732394_at) / RFU HLA-DPB1 (11760878_x_at) / Fold change /veh HLA-DPB1 (11760878_x_at) / RFU SPINT1 (11716480_a_at) / Fold change /veh SPINT1 (11716480_a_at) / RFU GAP43 (11754022_s_at) / Fold change /veh GAP43 (11754022_s_at) / RFU A4GNT (11735810_at) / Fold change /veh A4GNT (11735810_at) / RFU PRB3 (11715151_x_at) / Fold change /veh PRB3 (11715151_x_at) / RFU TUBB4B (11761932_at) / Fold change /veh TUBB4B (11761932_at) / RFU CAPN14 (11732068_a_at) / Fold change /veh CAPN14 (11732068_a_at) / RFU TMCC2 (11721928_a_at) / Fold change /veh TMCC2 (11721928_a_at) / RFU IRGQ (11745062_a_at) / Fold change /veh IRGQ (11745062_a_at) / RFU FAM174B (11720279_a_at) / Fold change /veh FAM174B (11720279_a_at) / RFU TMPRSS4 (11748680_a_at) / Fold change /veh TMPRSS4 (11748680_a_at) / RFU FAM212B (11763350_a_at) / Fold change /veh FAM212B (11763350_a_at) / RFU PLEKHG5 (11743358_a_at) / Fold change /veh PLEKHG5 (11743358_a_at) / RFU ZSCAN30 (11745921_a_at) / Fold change /veh ZSCAN30 (11745921_a_at) / RFU CMKLR1 (11741424_a_at) / Fold change /veh CMKLR1 (11741424_a_at) / RFU LOC101060620 /// MAPK8IP1 (11723275_at) / Fold change /veh LOC101060620 /// MAPK8IP1 (11723275_at) / RFU SPTSSB (11747773_x_at) / Fold change /veh SPTSSB (11747773_x_at) / RFU PRSS12 (11739890_at) / Fold change /veh PRSS12 (11739890_at) / RFU BIN1 (11741810_x_at) / Fold change /veh BIN1 (11741810_x_at) / RFU WNT11 (11732464_a_at) / Fold change /veh WNT11 (11732464_a_at) / RFU C10orf10 (11716521_a_at) / Fold change /veh C10orf10 (11716521_a_at) / RFU C5orf56 (11738089_at) / Fold change /veh C5orf56 (11738089_at) / RFU CYB561 (11721691_x_at) / Fold change /veh CYB561 (11721691_x_at) / RFU ANKRD19P (11752326_a_at) / Fold change /veh ANKRD19P (11752326_a_at) / RFU OR2T12 /// OR2T33 /// OR2T8 (11738714_s_at) / Fold change /veh OR2T12 /// OR2T33 /// OR2T8 (11738714_s_at) / RFU VCAN (11748164_a_at) / Fold change /veh VCAN (11748164_a_at) / RFU JSRP1 (11732532_at) / Fold change /veh JSRP1 (11732532_at) / RFU KRTAP10-11 (11738290_x_at) / Fold change /veh KRTAP10-11 (11738290_x_at) / RFU MYO3A (11730013_a_at) / Fold change /veh MYO3A (11730013_a_at) / RFU EBF3 (11725865_a_at) / Fold change /veh EBF3 (11725865_a_at) / RFU CAMK2N1 (11719241_x_at) / Fold change /veh CAMK2N1 (11719241_x_at) / RFU C5orf56 (11738088_a_at) / Fold change /veh C5orf56 (11738088_a_at) / RFU OLFML3 (11715873_a_at) / Fold change /veh OLFML3 (11715873_a_at) / RFU LOC100653217 /// NTM (11731650_a_at) / Fold change /veh LOC100653217 /// NTM (11731650_a_at) / RFU MAPK11 (11762145_a_at) / Fold change /veh MAPK11 (11762145_a_at) / RFU FIZ1 (11724087_x_at) / Fold change /veh FIZ1 (11724087_x_at) / RFU OASL (11726364_x_at) / Fold change /veh OASL (11726364_x_at) / RFU SOX15 (11748057_x_at) / Fold change /veh SOX15 (11748057_x_at) / RFU CD79A (11719716_a_at) / Fold change /veh CD79A (11719716_a_at) / RFU HIST1H1D (11736915_at) / Fold change /veh HIST1H1D (11736915_at) / RFU CASKIN2 (11723855_a_at) / Fold change /veh CASKIN2 (11723855_a_at) / RFU LOC730098 (11760151_x_at) / Fold change /veh LOC730098 (11760151_x_at) / RFU OR4N2 (11742367_at) / Fold change /veh OR4N2 (11742367_at) / RFU PRRT2 (11749266_a_at) / Fold change /veh PRRT2 (11749266_a_at) / RFU SNX32 (11753110_a_at) / Fold change /veh SNX32 (11753110_a_at) / RFU CDHR5 (11726645_a_at) / Fold change /veh CDHR5 (11726645_a_at) / RFU RCAN1 (11760418_a_at) / Fold change /veh RCAN1 (11760418_a_at) / RFU FAM167A (11723789_a_at) / Fold change /veh FAM167A (11723789_a_at) / RFU FAM26E (11764081_at) / Fold change /veh FAM26E (11764081_at) / RFU ISYNA1 (11749810_s_at) / Fold change /veh ISYNA1 (11749810_s_at) / RFU ACY1 (11761880_at) / Fold change /veh ACY1 (11761880_at) / RFU 11764098_at / Fold change /veh 11764098_at / RFU SAMD14 (11745864_x_at) / Fold change /veh SAMD14 (11745864_x_at) / RFU NPB (11741838_a_at) / Fold change /veh NPB (11741838_a_at) / RFU TMPRSS6 (11731388_a_at) / Fold change /veh TMPRSS6 (11731388_a_at) / RFU KRTAP10-2 (11738614_at) / Fold change /veh KRTAP10-2 (11738614_at) / RFU ARHGAP8 /// PRR5-ARHGAP8 (11727945_x_at) / Fold change /veh ARHGAP8 /// PRR5-ARHGAP8 (11727945_x_at) / RFU KRTAP5-7 /// NADSYN1 (11734609_at) / Fold change /veh KRTAP5-7 /// NADSYN1 (11734609_at) / RFU RASL12 (11751679_a_at) / Fold change /veh RASL12 (11751679_a_at) / RFU CDKN2B (11736163_a_at) / Fold change /veh CDKN2B (11736163_a_at) / RFU PRF1 (11729649_at) / Fold change /veh PRF1 (11729649_at) / RFU, ZNF638 /// ZNF638-IT1 / Fold change vs veh, ZNF638 /// ZNF638-IT1 / RFU, PANK3 / Fold change vs veh, PANK3 / RFU, SH3YL1 / Fold change vs veh, SH3YL1 / RFU, ZEB2 / Fold change vs veh, ZEB2 / RFU, NRIP1 / Fold change vs veh, NRIP1 / RFU, PTTG1IP / Fold change vs veh, PTTG1IP / RFU, CAPN2 / Fold change vs veh, CAPN2 / RFU, MED14 / Fold change vs veh, MED14 / RFU, SNORA58 / Fold change vs veh, SNORA58 / RFU, C1orf63 / Fold change vs veh, C1orf63 / RFU, LRRFIP1 / Fold change vs veh, LRRFIP1 / RFU, NDUFAF7 / Fold change vs veh, NDUFAF7 / RFU, SLC12A2 / Fold change vs veh, SLC12A2 / RFU, IBTK / Fold change vs veh, IBTK / RFU, ESF1 / Fold change vs veh, ESF1 / Fold change vs veh, TMEM50B / RFU, TAOK1 / Fold change vs veh, TAOK1 / RFU, ACBD3 / Fold change vs veh, ACBD3 / RFU, TMA16 / Fold change vs veh, TMA16 / RFU, RWDD3 / Fold change vs veh, RWDD3 / RFU, BCAT1 / Fold change vs veh, BCAT1 / RFU, EDEM3 / Fold change vs veh, EDEM3 / RFU, TMEM33 / Fold change vs veh, TMEM33 / RFU, WDR75 / Fold change vs veh, WDR75 / RFU, AHCTF1 / Fold change vs veh, AHCTF1 / RFU, TFRC / Fold change vs veh, TFRC / RFU, ZDHHC17 / Fold change vs veh, ZDHHC17 / RFU, NOM1 / Fold change vs veh, NOM1 / RFU, ARL8B / Fold change vs veh, ARL8B / RFU, ZBTB11 / Fold change vs veh, ZBTB11 / RFU, TAMM41 / Fold change vs veh, TAMM41 / RFU, KIAA1704 /// LOC100996395 / Fold change vs veh, KIAA1704 /// LOC100996395 / RFU, ING1 / Fold change vs veh, ING1 / RFU, TRMT61B / Fold change vs veh, TRMT61B / RFU, FUBP3 / Fold change vs veh, FUBP3 / RFU, TP53 / Fold change vs veh, TP53 / RFU, TNKS2 / Fold change vs veh, TNKS2 / RFU, ZFP14 / Fold change vs veh, ZFP14 / RFU, ACTR2 / Fold change vs veh, ACTR2 / RFU, PPP3R1 / Fold change vs veh, PPP3R1 / RFU, PIK3R1 / Fold change vs veh, PIK3R1 / RFU, HNRNPA1 / Fold change vs veh, HNRNPA1 / RFU, RNF170 / Fold change vs veh, RNF170 / RFU, ZNF28 / Fold change vs veh, ZNF28 / RFU, RNGTT / Fold change vs veh, RNGTT / RFU, OGT / Fold change vs veh, OGT / RFU, BRD1 / Fold change vs veh, BRD1 / RFU, MARS / Fold change vs veh, MARS / RFU, ZNF655 / Fold change vs veh, ZNF655 / RFU, FAHD1 / Fold change vs veh, FAHD1 / RFU, BDP1 / Fold change vs veh, BDP1 / RFU, LRRCC1 / Fold change vs veh, LRRCC1 / RFU, ARID1A / Fold change vs veh, ARID1A / RFU, ZNF146 / Fold change vs veh, ZNF146 / RFU, ZNF330 / Fold change vs veh, ZNF330 / RFU, GPN3 / Fold change vs veh, GPN3 / RFU, C9orf123 / Fold change vs veh, C9orf123 / RFU, N4BP2L2 / Fold change vs veh, N4BP2L2 / RFU, ARFIP1 / Fold change vs veh, ARFIP1 / RFU, FAM179B / Fold change vs veh, FAM179B / RFU, BCL10 / Fold change vs veh, BCL10 / RFU, UHRF1BP1L / Fold change vs veh, UHRF1BP1L / RFU, BET1 / Fold change vs veh, BET1 / RFU, CNOT2 / Fold change vs veh, CNOT2 / RFU, ZNF268 / Fold change vs veh, ZNF268 / Fold change vs veh, ZNF507 / RFU, DGCR2 / Fold change vs veh, DGCR2 / RFU, WDSUB1 / Fold change vs veh, WDSUB1 / Fold change vs veh, HSP90B1 /// MIR3652 / RFU, ADSS / Fold change vs veh, ADSS / RFU, GK / Fold change vs veh, GK / RFU, ZNF148 / Fold change vs veh, ZNF148 / RFU, TAF9 / Fold change vs veh, TAF9 / RFU, SLC1A5 / Fold change vs veh, SLC1A5 / RFU, SLMO2 / Fold change vs veh, SLMO2 / RFU, ABCC4 / Fold change vs veh, ABCC4 / RFU, LOC101060439 /// RAP1B / Fold change vs veh, LOC101060439 /// RAP1B / RFU, RFX7 / Fold change vs veh, RFX7 / RFU, GTPBP10 / Fold change vs veh, GTPBP10 / RFU, CNEP1R1 / Fold change vs veh, CNEP1R1 / RFU, BIVM-ERCC5 /// ERCC5 / Fold change vs veh, BIVM-ERCC5 /// ERCC5 / RFU, ILF3 / Fold change vs veh, ILF3 / RFU 11762660_at / Fold change /veh 11762660_at / RFU VCAN (11757783_s_at) / Fold change /veh VCAN (11757783_s_at) / RFU DDX43 (11728927_at) / Fold change /veh DDX43 (11728927_at) / RFU KRT8 (11758188_x_at) / Fold change /veh KRT8 (11758188_x_at) / RFU NKD1 (11759106_at) / Fold change /veh NKD1 (11759106_at) / RFU SRD5A1 (11742802_a_at) / Fold change /veh SRD5A1 (11742802_a_at) / RFU TPSAB1 /// TPSB2 (11721975_s_at) / Fold change /veh TPSAB1 /// TPSB2 (11721975_s_at) / RFU GSTM3 (11746129_a_at) / Fold change /veh GSTM3 (11746129_a_at) / RFU IL23R (11737362_x_at) / Fold change /veh IL23R (11737362_x_at) / RFU TMEM51 (11727254_a_at) / Fold change /veh TMEM51 (11727254_a_at) / RFU PIWIL2 (11732686_x_at) / Fold change /veh PIWIL2 (11732686_x_at) / RFU ORM1 (11744905_x_at) / Fold change /veh ORM1 (11744905_x_at) / RFU CCDC152 (11743942_at) / Fold change /veh CCDC152 (11743942_at) / RFU ECM1 (11717891_a_at) / Fold change /veh ECM1 (11717891_a_at) / RFU IL23R (11748794_a_at) / Fold change /veh IL23R (11748794_a_at) / RFU TNFAIP8L3 (11732012_x_at) / Fold change /veh TNFAIP8L3 (11732012_x_at) / RFU MBOAT4 (11741988_at) / Fold change /veh MBOAT4 (11741988_at) / RFU 11764193_at / Fold change /veh 11764193_at / RFU TMEM53 (11763286_at) / Fold change /veh TMEM53 (11763286_at) / RFU MAGEB2 (11727129_at) / Fold change /veh MAGEB2 (11727129_at) / RFU TMEM200A (11744735_a_at) / Fold change /veh TMEM200A (11744735_a_at) / RFU CCDC152 (11751479_a_at) / Fold change /veh CCDC152 (11751479_a_at) / RFU FAM211A (11726209_a_at) / Fold change /veh FAM211A (11726209_a_at) / RFU RGS16 (11746705_a_at) / Fold change /veh RGS16 (11746705_a_at) / RFU VCAN (11755009_s_at) / Fold change /veh VCAN (11755009_s_at) / RFU RHOB (11743442_s_at) / Fold change /veh RHOB (11743442_s_at) / RFU RGS16 (11720943_a_at) / Fold change /veh RGS16 (11720943_a_at) / RFU RGS16 (11720944_at) / Fold change /veh RGS16 (11720944_at) / RFU, VPS4B / Fold change vs veh, VPS4B / RFU, CREB1 / Fold change vs veh, CREB1 / RFU, DNAJC13 / Fold change vs veh, DNAJC13 / RFU, GNAQ / Fold change vs veh, GNAQ / RFU, CDK5R1 / Fold change vs veh, CDK5R1 / RFU, ZRANB3 / Fold change vs veh, ZRANB3 / RFU, CUL4A / Fold change vs veh, CUL4A / RFU, CCNY / Fold change vs veh, CCNY / RFU, UFL1 / Fold change vs veh, UFL1 / RFU, COG3 / Fold change vs veh, COG3 / RFU, DIAPH2 / Fold change vs veh, DIAPH2 / RFU, SKA2 / Fold change vs veh, SKA2 / RFU, AFF3 / Fold change vs veh, AFF3 / RFU, LMF1 / Fold change vs veh, LMF1 / RFU, IPO11 / Fold change vs veh, IPO11 / RFU, DFFB / Fold change vs veh, DFFB / RFU, FOXP1 / Fold change vs veh, FOXP1 / RFU, CARD8 / Fold change vs veh, CARD8 / RFU, STRN3 / Fold change vs veh, STRN3 / RFU, ADK / Fold change vs veh, ADK / RFU, RASSF2 / Fold change vs veh, RASSF2 / RFU, WIPF1 / Fold change vs veh, WIPF1 / RFU, LARP1B / Fold change vs veh, LARP1B / RFU, RASA1 / Fold change vs veh, RASA1 / RFU, RB1 / Fold change vs veh, RB1 / RFU, PPFIA1 / Fold change vs veh, PPFIA1 / RFU, MAT2A / Fold change vs veh, MAT2A / RFU, CCT5 / Fold change vs veh, CCT5 / RFU, WDR92 / Fold change vs veh, WDR92 / RFU, CUX1 / Fold change vs veh, CUX1 / RFU, TTC7A / Fold change vs veh, TTC7A / RFU, TMEM135 / Fold change vs veh, TMEM135 / RFU, DEPTOR / Fold change vs veh, DEPTOR / RFU, CPM / Fold change vs veh, CPM / RFU, DNAJB6 / Fold change vs veh, DNAJB6 / RFU, CACNA2D3 / Fold change vs veh, CACNA2D3 / RFU, DTX4 / Fold change vs veh, DTX4 / RFU, TFCP2 / Fold change vs veh, TFCP2 / RFU, GMCL1 /// GMCL1P1 / Fold change vs veh, GMCL1 /// GMCL1P1 / RFU, AEBP2 / Fold change vs veh, AEBP2 / RFU, SNHG1 /// SNORD22 /// SNORD25 /// SNORD26 /// SNORD27 /// SNORD28 /// SNORD29 /// SNORD31 / Fold change vs veh, SNHG1 /// SNORD22 /// SNORD25 /// SNORD26 /// SNORD27 /// SNORD28 /// SNORD29 /// SNORD31 / Fold change (Aza/veh), C12orf56 (ProbeSet 11735607_a_at) / Fold change (ACY-1035/veh), C12orf56 (ProbeSet 11735607_a_at) / Fold change (Aza/veh), FGFR1OP (ProbeSet 11751329_s_at) / Fold change (ACY-1035/veh), FGFR1OP (ProbeSet 11751329_s_at) / Fold change (Aza/veh), VPS36 (ProbeSet 11739960_a_at) / Fold change (ACY-1035/veh), VPS36 (ProbeSet 11739960_a_at) / RFU SYPL1 (11715823_x_at) / Fold change /veh SYPL1 (11715823_x_at) / RFU IGFBP7 (11715501_s_at) / Fold change /veh IGFBP7 (11715501_s_at) / RFU REEP3 (11722064_at) / Fold change /veh REEP3 (11722064_at) / RFU IGLL1 (11728026_x_at) / Fold change /veh IGLL1 (11728026_x_at): dose or concentration left out as unconfirmed
Conditions: MV-4-11 cells, 48 hours

With `Nc1ncn([C@@H]2O[C@H](CO)[C@@H](O)[C@H]2O)c(=O)n1` [azacitidine] the “Fold change /veh KRT8 (11758188_x_at)” value was 1.26.
